Laboratory results as given in US10130590B2, “Methods of treating cancer with atovaquone-related compounds” (DANA-FARBER CANCER INSTITUTE, INC., priority 2013, dated 2018).

Legend:
Type in all cases: cell-based
[1] = test system: endogenous STAT3 target genes; test: qRT-PCR of endogenous STAT3 target genes; settings: U266, INA-6 and HEL cells, 6 hours
Protocol: Total RNA was reverse transcribed using random hexamers and assayed by qRT-PCR as previously described (see, Grivennikov S I, Greten F R, & Karin M (2010) Immunity, inflammation, and cancer. Cell 140(6):883-899).
Gene expression was analyzed in triplicate, normalized by 18S rRNA, and expressed as mean±SEM. For gene expression microarrays, RNA was isolated by Trizol, purified further on RNeasy columns, and profiled using Affymetrix Human Gene 1.0 ST arrays (Affymetrix). Results were deposited under GEO Accession: GSE46575.
The mechanism by which atovaquone inhibits STAT3 was investigated. STAT3-luc reporter cells were pre-treated with atovaquone (20 μM) for 1 hr, and then stimulated with IL-6 (10 ng/ml) for 15 minutes, 30 minutes, 1 hours, or 2 hours. Since STAT3 transcriptional activity is critically dependent on tyrosine phosphorylation, Western blotting was performed to see if atovaquone affected STAT3 phosphorylation. […] Next, atovaquone was used to treat U266 (2.5 hours), HEL (6 hours), or INA-6 cells (4 hours). […] In U266 and INA-6 cells, the source of STAT3 activation is JAK-dependent IL-6 signaling, while in HEL cells, STAT3 is activated by mutant JAK2-V617F. Given that atovaquone inhibits constitutive STAT3 activation in cancer cells, it was asked whether atovaquone inhibits expression of endogenous STAT3 target genes in this context.

eIF2α/ATF4 pathway = test: Western blot / qRT-PCR of phospho-eIF2α/ATF4 pathway
Protocol: Western blotting was performed as previously described (Battle T E, Arbiser J, & Frank D A (2005) The natural product honokiol induces caspase dependent apoptosis in B-cell chronic lymphocytic leukemia (B-CLL) cells. Blood 106(2):690-697). Antibodies to phospho-MAPK (9101), total MAPK (9102), phospho-Y705 STAT3 (9131), phospho-S6 (2215), total S6 (2217), phospho-4E-BP1 (9451), total 4E-BP1 (9644), total RSK (9355), phospho-S6K (9234, 85 used at 1:5000), total S6K (2708), phospho-eIF2α (9721, used at 1:1000), total eIF2α (5324), ATF4 (11815, used at 1:1000), PDGFRβ (3169), IGF1Rβ (9750), EGFR (2232), and HER2 (2242) were from Cell Signaling Technology. Phospho-RSK antibody was from R&D (AF889). Antibodies to total STAT3 (sc-482) and gp130 (sc-656, used at 1:1000) were from Santa Cruz Biotechnology. Phospho-S727 STAT3 antibody was described previously (229). REDD1 antibody was from Proteintech (10638-1-AP, used at 1:1000). Antibody recognizing full-length and cleaved ATF6 was from Abcam (ab122897, used at 1:1000). Antibodies to tubulin (T5168) and beta actin (A5316) were from Sigma. All antibodies were used at 1:10000 dilution for western blot unless otherwise noted. For immunoprecipitations, cells were lysed in 500 μl lysis buffer (0.5% NP-40, 150 mM NaCl, 50 mM Tris pH 7.5, with protease and phosphatase inhibitors freshly added at 1:100 [Pierce, PI78443]) on ice for 15 minutes, then centrifuged for 10 minutes at 14,000 RPM and 4° C. The supernatant was transferred to a new tube and incubated with 10 μl JAK2 antibody (Santa Cruz sc-278) or a mix of two TYK2 antibodies, 10 μl of each (Santa Cruz sc-5271 and Cell Signaling Technology 9312). Immunoprecipitation was performed overnight at 4° C. with rotation. The next day, 75 μl of protein A/G beads (Santa Cruz sc-2003) were washed twice in lysis buffer, then incubated with immunoprecipitates overnight as before. The next day, the beads were spun down (1 min. at 7,500 RPM and 4° C.) and washed 3 times with 650 μl lysis buffer for 10 minutes at 4° C. with rotation, then boiled in 50 μl sample buffer+10% β-mercaptoethanol. For Western blot, 20 μl were loaded per lane. For detection of phospho-tyrosine, a mixture of two pan-phospho-tyrosine antibodies (Cell Signaling Technology 9411 and 9416, 1:1000 of each) was used. Antibody to phospho-Y1007/1008 JAK2 was from Cell Signaling 86 Technology (3771, used at 1:1000). Antibody to phospho-Y570 JAK2 was from Millipore (09-241, used at 1:1000). Luminometric Assays Luciferase reporter cell lines were described previously (186). Firefly luciferase values were normalized by concurrent cell viability. Cell viability was measured as ATP-dependent luminescence by Cell Titer Glo (Promega).
In asking how atovaquone induces REDD1, a possible role for ATF4, which regulates REDD1 expression was considered. ATF4 is regulated mainly at the level of translation and is induced upon phosphorylation of eIF2α. […] K562 and AML2 cells, which lack STAT3 activation, were treated with rapamycin for 72 hours. […] For these reasons, it was hypothesized that atovaquone induces eIF2α phosphorylation, with a resulting increase in ATF4 protein and signaling. U266, K562, and SKBR3 cells were treated with atovaquone (20, 20, 25 μM respectively). […] The phospho-eIF2α/ATF4 pathway represents one branch of the UPR, whose other branches consist of ATF6 cleavage and IRE1-mediated XBP1 splicing. […] Thus, atovaquone selectively activates the phospho-eIF2α/ATF4 branch of the UPR. […]

[2] = test system: PDGFR-β, EGFR, HER2, and IGF1R-β; test: Western blot of other receptors; settings: MEF, MDA-MB-468, SKBR3; 25 μM, 6 or 12 hours
Protocol: Western blotting was performed as previously described (Battle T E, Arbiser J, & Frank D A (2005) The natural product honokiol induces caspase dependent apoptosis in B-cell chronic lymphocytic leukemia (B-CLL) cells. Blood 106(2):690-697). Antibodies to phospho-MAPK (9101), total MAPK (9102), phospho-Y705 STAT3 (9131), phospho-S6 (2215), total S6 (2217), phospho-4E-BP1 (9451), total 4E-BP1 (9644), total RSK (9355), phospho-S6K (9234, 85 used at 1:5000), total S6K (2708), phospho-eIF2α (9721, used at 1:1000), total eIF2α (5324), ATF4 (11815, used at 1:1000), PDGFRβ (3169), IGF1Rβ (9750), EGFR (2232), and HER2 (2242) were from Cell Signaling Technology. Phospho-RSK antibody was from R&D (AF889). Antibodies to total STAT3 (sc-482) and gp130 (sc-656, used at 1:1000) were from Santa Cruz Biotechnology. Phospho-S727 STAT3 antibody was described previously (229). REDD1 antibody was from Proteintech (10638-1-AP, used at 1:1000). Antibody recognizing full-length and cleaved ATF6 was from Abcam (ab122897, used at 1:1000). Antibodies to tubulin (T5168) and beta actin (A5316) were from Sigma. […] Cell viability was measured as ATP-dependent luminescence by Cell Titer Glo (Promega).
MEF, MDA-MB-468, and SKBR3 cells were treated with atovaquone (25 μM) for 6 or 12 hours, then analyzed by Western blot for expression of gp130 and various other receptors. […]

[3] = U266, K562, SKBR3, 20, 20, 25 μM

SMILES: O=C1C(O)=C([C@H]2CC[C@H](c3ccc(Cl)cc3)CC2)C(=O)c2ccccc21 [atovaquone, trans-2-[4-(4-chlorophenyl)cyclohexyl]-3-hydroxy-1,4-naphthalenedione]
- expression of multiple STAT3 target genes [1]: substantially downregulated
- CHAC1 expression (eIF2α/ATF4 pathway): consistently upregulated
- CHOP expression (eIF2α/ATF4 pathway): strongly upregulates CHOP
- expression of ATF4 mRNA (eIF2α/ATF4 pathway; U266, 15 μM, 2 hours): unchanged
- ATF4 protein levels (eIF2α/ATF4 pathway; [3]): increased ATF4 protein levels
- eIF2α phosphorylation (eIF2α/ATF4 pathway; [3]): induced eIF2α phosphorylation
- levels of other receptors (PDGFR-β, EGFR, HER2, IGF1R-β) [2]: not affected
